Reference: patent publication EP0334967B1, “KERATOSIS-TREATING AGENT” (priority 1987, dated 1989)
Where two headings read alike, the source gives them in different places.

Legend:
[1] = system: male mice of the ICR line; assay: Acute toxicity test; conditions: mouse, in vivo, po, 500 mg/kg
Description: (§1) The acute toxicity test of cis-(6)-shogaol was carried out by using male mice of the ICR line.

5-lipoxygenase = biological target: T1, 5-lipoxygenase (Rattus norvegicus, UniProt P12527); assay: 5-Lipoxygenase-inhibiting action (5-HETE formation, enzyme from RBL-1 cultured cells); assay type: biochemical; conditions: 5-lipoxygenase from RBL-1 cells, 10 µM arachidonic acid, 37°C 10 minutes; tested at 5, 1 or 0.5 µM
T1 construct: The supernatant was used as the standard enzyme of 5-lipoxygenase; endogenous in cells; host or cells: RBL-1 cultured cells, sonicated; 105,000 x G supernatant
T1 sequence (P12527 1-673): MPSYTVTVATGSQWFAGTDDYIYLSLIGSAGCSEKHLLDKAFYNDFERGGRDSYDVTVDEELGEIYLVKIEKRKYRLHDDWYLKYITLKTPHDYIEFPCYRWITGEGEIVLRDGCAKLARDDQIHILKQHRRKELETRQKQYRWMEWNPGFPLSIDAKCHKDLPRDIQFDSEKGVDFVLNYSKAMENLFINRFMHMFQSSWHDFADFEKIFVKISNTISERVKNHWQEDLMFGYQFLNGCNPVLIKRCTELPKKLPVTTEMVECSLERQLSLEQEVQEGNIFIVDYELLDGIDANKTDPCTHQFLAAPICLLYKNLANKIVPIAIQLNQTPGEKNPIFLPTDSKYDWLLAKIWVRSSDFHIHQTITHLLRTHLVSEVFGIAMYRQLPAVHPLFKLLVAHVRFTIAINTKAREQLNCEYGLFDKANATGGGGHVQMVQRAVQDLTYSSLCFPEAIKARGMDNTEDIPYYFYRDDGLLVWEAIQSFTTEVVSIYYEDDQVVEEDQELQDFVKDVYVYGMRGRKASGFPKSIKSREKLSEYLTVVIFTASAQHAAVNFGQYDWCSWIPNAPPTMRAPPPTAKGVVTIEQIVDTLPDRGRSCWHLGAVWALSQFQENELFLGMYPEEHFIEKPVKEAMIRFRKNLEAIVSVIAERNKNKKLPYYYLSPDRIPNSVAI
Description: RBL-1 cultured cells were suspended in a 50 mM phosphate buffer solution (pH 7.4) containing 1 mM EDTA and 10% ethylene glycol so that the cell concentration was 5 x 10⁶ per ml, and the cell suspension was subjected to an ultrasonic wave treatment. Then, centrifugal separation was carried out under 10,000 x G for 10 minutes and then under 105,000 x G for 60 minutes. The supernatant was used as the standard enzyme of 5-lipoxygenase.
A test tube was charged with a 50 mM phosphate buffer solution, 1.5 mM calcium chloride, 20 µM indomethacin, 18 mM glutathione, 6 mM ATP, 10 µM arachidonic acid, the obtained standard enzyme, and an ethanol solution of cis-(6)-shogaol, to a total volume of 0.6 ml and a final concentration of 5, 1 or 0.5 µM, and a reaction was carried out at 37°C for 10 minutes. […] The amount of 5-HETE in the liquid measured by the high-speed liquid chromatography [column = TSK-gel ODS-80TM (supplied by Toso), moving phase = acetonitrile/water/ acetic acid (60/40/0.02), flow rate = 1 ml/min, detection = ultraviolet ray (235 nm)], and the obtained value was designated as the enzyme activity. The inhibition ratio at each concentration was calculated by the following formula, and the concentration giving an inhibition ratio of 50% (hereinafter referred to as "IC₅₀") was determined. […]

cyclooxygenase = assay: Cyclooxygenase-inhibiting action (PGE2 formation, rabbit kidney marrow microsome fraction); assay type: biochemical; conditions: cyclooxygenase from rabbit kidney marrow microsomes, [1-14C] arachidonic acid, 37°C 15 minutes; tested at 40, 20, 10 or 5 µM
Description: To 7.0 g of rabbit kidney marrow was added 60 ml of a 0.1M phosphate buffer solution (pH 7.5) containing 1 mM glutathione, and the mixture was homogenized by using a polytrone. The homogenate was subjected to the centrifugal separation under. 105,000 x G for 60 minutes to obtain a microsome fraction, and the fraction was dissolved in 7 ml of a 0.1M phosphate buffer solution (pH 7.5) containing 1 mM glutathione to obtain a standard enzyme of cyclooxygenase.
To 15 µl of the obtained standard enzyme were added 4 mM glutathione, 10 mM tryptophan, 0.25 µM hemoglobin, and a phosphate buffer solution (pH 7.5), each concentration being the final concentration, and [1-¹⁴C] arachidonic acid (5 x 10⁴ dpm) and cis-(6)-shogaol were added to a final concentration of 40, 20, 10 or 5 µM and a total volume of 200 µl. Incubation was carried out at 37 °C for 15 minutes, and 1N hydrochloric acid was added to stop the reaction. Prostaglandin E₂ (PGE₂) was added as the carrier and the reaction product was extracted with 2 ml of ether. […] Coloration was effected with an iodine vapor, the portion corresponding of […] was scratched out, and the radioactivity of PGE₂ was measured by a liquid scintillation counter. The inhibition ratio at each concentration was calculated according to the following formula, and the 1C₅₀ was determined. […]

balb/c 3T3 cells = assay: Inhibitory action to EGF stimulated cell growth (3H-thymidine incorporation); assay type: cell-based; conditions: 16 hours + 8 hours 3H-thymidine
Description: A culture medium (hereinafter referred to as "CS DMEM") containing 10% of calf serum, which was prepared so that 2.5 x 10⁴ of fibroblasts (balb/c 3T3 cells) were contained in 0.5 ml, was added in a 24-well plate in an amount of 0.5 ml per well. After the fibroblasts were confluent in the state of a single layer, the culture medium was replaced with the same amount of 1% CS DMEM and the cells were incubated at 37°C for 12 hours in a humidified atmosphere of 95% air-5% CO₂. Then, 1 µg/25 µl/well of trans-(6)-shogaol and 5 ng/25 µl/well of EGF (supplied by Collaborative Research, Inc.) were added, and the cells were further incubated for 16 hours. Then, 0.5 µCi(1.85+10⁻¹⁶S⁻¹)/50 µl of ³H-thymidine was added and the cells were further incubated 8 hours. The culture medium was removed, and the cells were washed with a cold phosphate buffered saline. […] The radioactivity of ³H-thymidine included in the cells by this growth was measured, and the action of trans-(6)-shogaol to the growth of the cells was examined.
10% CS DMEM prepared so that 2.5 x 10⁴ of fibroblasts (balb/c 3T3 cells) were contained in 0.5 ml were added in a 24-well plate in an amount of 0.5 ml/well. […] The radioactivity of ³H-thymidine included in the cells by this growth was measured, and the function of cis-(6)-shogaol to the growth of the cells was examined.

Acute toxicity test = assay: Acute toxicity test; design: species or system mice; conditions: mouse, in vivo
Description: as §1

For CCCCC/C=C\C(=O)CCc1ccc(O)c(OC)c1 [cis-(6)-shogaol], the mortality [1] was “none of the mice died”, the IC50 (5-lipoxygenase) was 0.83 µM and the IC50 (cyclooxygenase) was 11.7 µM. For the same compound, the “growth inhibited, balb/c 3T3 cells the growth of which was promoted by EGF” value (balb/c 3T3 cells; Experiment 4: 0.5 µg/12.5 µl/well compound, 50 pg/25 µl/well mouse EGF) was 63.9%.
In the case of CCCCC/C=C/C(=O)CCc1ccc(O)c(OC)c1 [trans-(6)-shogaol, 1(4-hydroxy-3-methoxyphenyl)-(E)-4-decen-3-one], the LD50 (Acute toxicity test; iv) is reported as 50.9 mg/kg, the LD50 (Acute toxicity test; oral administration, Litchfield-Wilcoxon method, male ICR mice, read-out: LD50) is reported as 687 mg/kg and the “growth inhibited, balb/c 3T3 cells the growth of which was promoted by EGF” value (balb/c 3T3 cells; Experiment 1: 1 µg/25 µl/well compound, 5 ng/25 µl/well EGF) is reported as 52.7%.
